# According to ChEMBL document CHEMBL2150895, “Zizimauritic acids A-C, three novel nortriterpenes from Ziziphus mauritiana” (Bioorg Med Chem Lett, 2012):
# Activity calls are given as the source filed them. No cut-off for these calls is given here.
# Assays:
# BGC-823 = experiment: Cytotoxicity against human BGC823 cells; assay type: functional, cell-based
# Staphylococcus aureus = experiment: Antibacterial activity against Staphylococcus aureus; assay type: functional, organism-based
# A549 = experiment: Cytotoxicity against human A549 cells; assay type: functional, cell-based
# HeLa = experiment: Cytotoxicity against human HeLa cells; assay type: functional, cell-based
# Candida albicans = experiment: Antifungal activity against Candida albicans; assay type: functional, organism-based
SMILES,Activity (BGC-823),Activity (Staphylococcus aureus),Activity (A549),Activity (HeLa),IC50 (BGC-823),IC50 (Candida albicans),IC50 (Staphylococcus aureus),IC50 (A549),IC50 (HeLa)
C=C(C)[C@@H]1CC[C@]2(C(=O)O)CC[C@]3(C)[C@H](CC[C@@H]4[C@@]5(C)CC[C@H](O)C(C)(C)[C@@H]5CC[C@]43C)[C@@H]12,inactive,inactive,inactive,inactive,,,,,
C=C(C)[C@@H]1CC[C@]2(C(=O)O)CC[C@]3(C)[C@H](CC[C@@H]4[C@@]5(C)[C@@H](C(=O)O)[C@H](O)C(C)(C)[C@@H]5CC[C@]43C)[C@@H]12,inactive,inactive,inactive,inactive,,,,,
CC(C)=C[C@@H]1[C@H]2CC[C@@H]3[C@@]4(C)C=CC(C)(C)[C@@H]4CC[C@@]3(C)[C@]2(C(=O)O)CC[C@@]12CC(O)OC2=O (mixture of isomers) [ZIZIMAURITIC ACID C],,,,,10.1 µg/mL,> 10 µg/mL,12.8 µg/mL,11.9 µg/mL,9.25 µg/mL
CC1(C)S[C@@H]2[C@H](NC(=O)[C@H](N)c3ccccc3)C(=O)N2[C@H]1C(=O)O [AMPICILLIN],,,,,,,0.04 µg/mL,,
C=C(C)[C@@H]1CC[C@]2(C(=O)O)CC[C@]3(C(=O)O)[C@H](CC[C@@H]4[C@@]5(C)C=CC(C)(C)[C@@H]5CC[C@]43C)[C@@H]12 [CEANOTHENIC ACID],,,,,> 10 µg/mL,> 10 µg/mL,> 20 µg/mL,,7.55 µg/mL
Clc1ccc(COC(Cn2ccnc2)c2ccc(Cl)cc2Cl)c(Cl)c1.O=[N+]([O-])O (configuration not stated) [MICONAZOLE NITRATE],,,,,,0.16 µg/mL,,,
CC(=O)O[C@H]1C(=O)[C@@]2(C)[C@H]([C@H](OC(=O)c3ccccc3)[C@]3(O)C[C@H](OC(=O)[C@H](O)[C@@H](NC(=O)c4ccccc4)c4ccccc4)C(C)=C1C3(C)C)[C@]1(OC(C)=O)CO[C@@H]1C[C@@H]2O [PACLITAXEL],,,,,0.01 µg/mL,,,0.02 µg/mL,0.38 µg/mL
CO[C@H]1C[C@@]2(CC[C@]3(C(=O)O)[C@H](CC[C@@H]4[C@@]5(C)C=CC(C)(C)[C@@H]5CC[C@]43C)[C@H]2C=C(C)C)C(=O)O1 [ZIZIMAURITIC ACID A],,,,,8.8 µg/mL,> 10 µg/mL,2.17 µg/mL,9.37 µg/mL,6.06 µg/mL
CO[C@@H]1C[C@@]2(CC[C@]3(C(=O)O)[C@H](CC[C@@H]4[C@@]5(C)C=CC(C)(C)[C@@H]5CC[C@]43C)[C@H]2C=C(C)C)C(=O)O1 [ZIZIMAURITIC ACID B],,,,,6.24 µg/mL,> 10 µg/mL,> 20 µg/mL,5.05 µg/mL,5.36 µg/mL
